We go through 23 compounds from US12390441B2, “Immunomodulating o-het/aryl azalides” (Zoetis Services LLC, priority 2020, dated 2025).

Marks after values point to notes of the source that are not given here.

Test [1] deals with BRD pathogens, M. haemolytica and P. multocida. Description: In-vitro MIC model, BRD pathogen screening panel. The format is cell-based, Mannheimia haemolytica; Pasteurella multocida. The note with it: at least one BRD strain.
In test [2] the test system is IL-6. Description: Whole blood assay, LPS stimulation, MSD cytokine detection. In kind it is cell-based. The note with it: fresh whole bovine blood.
Test [3] deals with TNF-α. Described as above. The note with it: fresh whole bovine blood. In kind it is cell-based.
Test [4] deals with IL-1β. Described as above. In kind it is cell-based, bovine. The conditions noted are these: fresh whole bovine blood, LPS stimulation; drug concentration giving overstimulation (OS) of IL-1β.

Take `CC[C@H]1OC(=O)[C@H](C)[C@@H](O[C@H]2C[C@@](C)(OC)[C@@H](O)[C@H](C)O2)[C@H](C)[C@@H](O[C@@H]2O[C@H](C)C[C@H](N(C)C)[C@H]2Oc2ccccc2C#N)[C@](C)(O)C[C@@H](C)CN(C)[C@H](C)[C@@H](O)[C@]1(C)O` [Example A-3]: the “MIC flag at the example number (Table A)” value in test [1] is “A-3* (MIC ≤ 64 μg/mL for at least one BRD strain)”.

Turning to `CC[C@H]1OC(=O)[C@H](C)[C@@H](O[C@H]2C[C@@](C)(OC)[C@@H](O)[C@H](C)O2)[C@H](C)[C@@H](O[C@@H]2O[C@H](C)C[C@H](N(C)C)[C@H]2Oc2ccc(Cl)nc2)[C@](C)(O)C[C@@H](C)CN(C)[C@H](C)[C@@H](O)[C@]1(C)O` [Example A-5], in test [1], the “MIC flag at the example number (Table A)” value is recorded as “A-5* (MIC ≤ 64 μg/mL for at least one BRD strain)”.

Take `CC[C@H]1OC(=O)[C@H](C)[C@@H](O[C@H]2C[C@@](C)(OC)[C@@H](O)[C@H](C)O2)[C@H](C)[C@@H](O[C@@H]2O[C@H](C)C[C@H](N(C)C)[C@H]2Oc2cnc(OC)nc2)[C@](C)(O)C[C@@H](C)CN(C)[C@H](C)[C@@H](O)[C@]1(C)O` [Example A-7]: the “MIC flag at the example number (Table A)” value in test [1] was “A-7* (MIC ≤ 64 μg/mL for at least one BRD strain)”.

With `CC[C@H]1OC(=O)[C@H](C)[C@@H](O[C@H]2C[C@@](C)(OC)[C@@H](O)[C@H](C)O2)[C@H](C)[C@@H](O[C@@H]2O[C@H](C)C[C@H](NC)[C@H]2Oc2ccc3ncccc3c2)[C@](C)(O)C[C@@H](C)CN(C)[C@H](C)[C@@H](O)[C@]1(C)O` [Example A-8], the “MIC flag at the example number (Table A)” value in test [1] is on record as “A-8* (MIC ≤ 64 μg/mL for at least one BRD strain)”.

Take `CC[C@H]1OC(=O)[C@H](C)[C@@H](O[C@H]2C[C@@](C)(OC)[C@@H](O)[C@H](C)O2)[C@H](C)[C@@H](O[C@@H]2O[C@H](C)C[C@H](N(C)C)[C@H]2Oc2ccccc2Cl)[C@](C)(O)C[C@@H](C)CN(C)[C@H](C)[C@@H](O)[C@]1(C)O` [Example A-10]: the “MIC flag at the example number (Table A)” value in test [1] is recorded as “A-10* (MIC ≤ 64 μg/mL for at least one BRD strain)”.

Consider `CC[C@H]1OC(=O)[C@H](C)[C@@H](O[C@H]2C[C@@](C)(OC)[C@@H](O)[C@H](C)O2)[C@H](C)[C@@H](O[C@@H]2O[C@H](C)C[C@H](NC)[C@H]2Oc2cncc(C(F)(F)F)c2)[C@](C)(O)C[C@@H](C)CN(C)[C@H](C)[C@@H](O)[C@]1(C)O` [Example A-13, (2R,3S,4R,5R,8R,10R,11R,12S,13S,14R)-2-ethyl-3,4,10-trihydroxy-13-(((2R,4R,5S,6S)-5-hydroxy-4-methoxy-4,6-dimethyltetrahydro-2H-pyran-2-yl)oxy)-3,5,6,8,10,12,14-heptamethyl-11-(((2S,3R,4S,6R)-6-methyl-4-(methylamino)-3-((5-(trifluoromethyl)pyridin-3-yl)oxy)tetrahydro-2H-pyran-2-yl)oxy)-1-oxa-6-azacyclopentadecan-15-one], for which the “MIC flag at the example number (Table A)” value in test [1] is given as “A-13* (MIC ≤ 64 μg/mL for at least one BRD strain)”.

In the case of `CC[C@H]1OC(=O)[C@H](C)[C@@H](O[C@H]2C[C@@](C)(OC)[C@@H](O)[C@H](C)O2)[C@H](C)[C@@H](O[C@@H]2O[C@H](C)C[C@H](NC)[C@H]2Oc2cc(F)ccc2OC)[C@](C)(O)C[C@@H](C)CN(C)[C@H](C)[C@@H](O)[C@]1(C)O` [Example A-14], the “MIC flag at the example number (Table A)” value in test [1] is “A-14* (MIC ≤ 64 μg/mL for at least one BRD strain)”.

For `CC[C@H]1OC(=O)[C@H](C)[C@@H](O[C@H]2C[C@@](C)(OC)[C@@H](O)[C@H](C)O2)[C@H](C)[C@@H](O[C@@H]2O[C@H](C)C[C@H](NC)[C@H]2Oc2cnc(OC)nc2)[C@](C)(O)C[C@@H](C)CN(C)[C@H](C)[C@@H](O)[C@]1(C)O` [Example A-15], the “MIC flag at the example number (Table A)” value in test [1] is “A-15* (MIC ≤ 64 μg/mL for at least one BRD strain)”.

As to `CCOc1ccc(O[C@H]2[C@H](O[C@@H]3[C@@H](C)[C@H](O[C@H]4C[C@@](C)(OC)[C@@H](O)[C@H](C)O4)[C@@H](C)C(=O)O[C@H](CC)[C@@](C)(O)[C@H](O)[C@@H](C)N(C)C[C@H](C)C[C@@]3(C)O)O[C@H](C)C[C@@H]2NC)cc1` [Example A-17], the “MIC flag at the example number (Table A)” value in test [1] is “A-17* (MIC ≤ 64 μg/mL for at least one BRD strain)”.

Take `CC[C@H]1OC(=O)[C@H](C)[C@@H](O[C@H]2C[C@@](C)(OC)[C@@H](O)[C@H](C)O2)[C@H](C)[C@@H](O[C@@H]2O[C@H](C)C[C@H](N(C)C)[C@H]2Oc2cccc(OC)c2)[C@](C)(O)C[C@@H](C)CN(C)[C@H](C)[C@@H](O)[C@]1(C)O` [Example A-20]: the “MIC flag at the example number (Table A)” value in test [1] is on record as “A-20* (MIC ≤ 64 μg/mL for at least one BRD strain)”.

As for `CC[C@H]1OC(=O)[C@H](C)[C@@H](O[C@H]2C[C@@](C)(OC)[C@@H](O)[C@H](C)O2)[C@H](C)[C@@H](O[C@@H]2O[C@H](C)C[C@H](NC)[C@H]2Oc2ccc(F)c(S(C)(=O)=O)c2)[C@](C)(O)C[C@@H](C)CN(C)[C@H](C)[C@@H](O)[C@]1(C)O` [Example A-22], the “MIC flag at the example number (Table A)” value in test [1] was “A-22* (MIC ≤ 64 μg/mL for at least one BRD strain)”.

Regarding `CC[C@H]1OC(=O)[C@H](C)[C@@H](O[C@H]2C[C@@](C)(OC)[C@@H](O)[C@H](C)O2)[C@H](C)[C@@H](O[C@@H]2O[C@H](C)C[C@H](N(C)C)[C@H]2Oc2ccc(OC)nc2C)[C@](C)(O)C[C@@H](C)CN(C)[C@H](C)[C@@H](O)[C@]1(C)O` [Example A-38], in test [1], the “MIC flag at the example number (Table A)” value was “A-38* (MIC ≤ 64 μg/mL for at least one BRD strain)”.

The IC50 is the point on the concentration scale where inhibition reaches its midpoint. A high value points to lower potency. For the compound `CCCNC[C@]1(O)[C@H](C)O[C@@H](O[C@H]2[C@H](C)[C@@H](O[C@@H]3O[C@H](C)C[C@H](N(C)Cc4cccnc4)[C@H]3Oc3ccccc3)[C@](C)(O)C[C@@H](C)CN[C@H](C)[C@@H](O)[C@](C)(O)[C@@H](CC)OC(=O)[C@@H]2C)C[C@@]1(C)OC` [Example E-149], the IC50 was 6 µM in test [2] and 10 µM in test [3]. For the same compound, the “IL-1ß OS of LPS” value in test [4] was 2 µM.

Turning to `CCCNC[C@]1(O)[C@H](C)O[C@@H](O[C@H]2[C@H](C)[C@@H](O[C@@H]3O[C@H](C)C[C@H](N(C)Cc4nccs4)[C@H]3Oc3ccccc3)[C@](C)(O)C[C@@H](C)CN[C@H](C)[C@@H](O)[C@](C)(O)[C@@H](CC)OC(=O)[C@@H]2C)C[C@@]1(C)OC` [Example E-150], the values for the IC50 in test [2] and in test [3] were 3 µM and 6 µM, respectively. In test [4], the “IL-1ß OS of LPS” value was 1 µM.

Regarding `CCCNC[C@]1(O)[C@H](C)O[C@@H](O[C@H]2[C@H](C)[C@@H](O[C@@H]3O[C@H](C)C[C@H](NC)[C@H]3Oc3ccc(OC)cc3)[C@](C)(O)C[C@@H](C)CN(C)[C@H](C)[C@@H](O)[C@](C)(O)[C@@H](CC)OC(=O)[C@@H]2C)C[C@@]1(C)OC` [Example E-151], the IC50 in test [2] and in test [3] was 23 µM in each case. Moreover, the “IL-1ß OS of LPS” value in test [4] amounted to 16 µM.

For `CCCNC[C@]1(O)[C@H](C)O[C@@H](O[C@H]2[C@H](C)[C@@H](O[C@@H]3O[C@H](C)C[C@H](NC)[C@H]3Oc3ccccc3)[C@](C)(O)C[C@@H](C)CN(C)[C@H](C)[C@@H](O)[C@](C)(O)[C@@H](CC)OC(=O)[C@@H]2C)C[C@@]1(C)OC` [Example E-152], the concentration for half-maximal inhibition (IC50) in test [2] was found to be 21 µM; in test [3], 23 µM. Moreover, the “IL-1ß OS of LPS” value in test [4] is 16 µM.

`CCCNC[C@]1(O)[C@H](C)O[C@@H](O[C@H]2[C@H](C)[C@@H](O[C@@H]3O[C@H](C)C[C@H](NC)[C@H]3Oc3ccc(F)cc3)[C@](C)(O)C[C@@H](C)CN(C)[C@H](C)[C@@H](O)[C@](C)(O)[C@@H](CC)OC(=O)[C@@H]2C)C[C@@]1(C)OC` [Example E-153]: the IC50 came to 18 µM in test [2] and 21 µM in test [3]. The “IL-1ß OS of LPS” value in test [4] was found to be 16 µM.

Turning to `CCCNC[C@]1(O)[C@H](C)O[C@@H](O[C@H]2[C@H](C)[C@@H](O[C@@H]3O[C@H](C)C[C@H](NC4CCCCC4)[C@H]3Oc3ccccc3)[C@](C)(O)C[C@@H](C)CN[C@H](C)[C@@H](O)[C@](C)(O)[C@@H](CC)OC(=O)[C@@H]2C)C[C@@]1(C)OC` [Example E-154], the IC50 in test [2] came to 4 µM; in test [3] it was 5 µM. Besides, the “IL-1ß OS of LPS” value in test [4] came to 1 µM.

For the compound `CCCNC[C@]1(O)[C@H](C)O[C@@H](O[C@H]2[C@H](C)[C@@H](O[C@@H]3O[C@H](C)C[C@H](NCC(C)C)[C@H]3Oc3ccccc3)[C@](C)(O)C[C@@H](C)CN[C@H](C)[C@@H](O)[C@](C)(O)[C@@H](CC)OC(=O)[C@@H]2C)C[C@@]1(C)OC` [Example E-155], the 50% inhibitory concentration (IC50) in test [2] (Bos taurus) and in test [3] (Bos taurus) was 8 µM in each case. For the same compound, in test [4], the “IL-1ß OS of LPS” value is 6 µM.

On to `CCCNC[C@]1(O)[C@H](C)O[C@@H](O[C@H]2[C@H](C)[C@@H](O[C@@H]3O[C@H](C)C[C@H](N(CC)CC)[C@H]3Oc3ccccc3)[C@](C)(O)C[C@@H](C)CN[C@H](C)[C@@H](O)[C@](C)(O)[C@@H](CC)OC(=O)[C@@H]2C)C[C@@]1(C)OC` [Example E-156], for which the IC50 in test [2] stood at 10 µM; in test [3], 8 µM. Further, the “IL-1ß OS of LPS” value in test [4] was found to be 16 µM.

`CCCNC[C@]1(O)[C@H](C)O[C@@H](O[C@H]2[C@H](C)[C@@H](O[C@@H]3O[C@H](C)C[C@H](NC)[C@H]3Oc3ccccc3)[C@](C)(O)C[C@@H](C)CN(CCC)[C@H](C)[C@@H](O)[C@](C)(O)[C@@H](CC)OC(=O)[C@@H]2C)C[C@@]1(C)OC` [Example E-157]: the IC50 in test [2] (Bos taurus) is 10 µM; in test [3] (Bos taurus), 9 µM. In addition, the “IL-1ß OS of LPS” value in test [4] is 16 µM.

Regarding `CCCNC[C@]1(O)[C@H](C)O[C@@H](O[C@H]2[C@H](C)[C@@H](O[C@@H]3O[C@H](C)C[C@H](N(C)C(=O)N(C)c4ncccn4)[C@H]3Oc3ccccc3)[C@](C)(O)C[C@@H](C)CN[C@H](C)[C@@H](O)[C@](C)(O)[C@@H](CC)OC(=O)[C@@H]2C)C[C@@]1(C)OC` [Example F-8], the IC50 stood at 167 µM in test [2] and 169 µM in test [3]. In test [4], the “IL-1ß OS of LPS” value came to 40 µM.

As for `CCCNC[C@]1(O)[C@H](C)O[C@@H](O[C@H]2[C@H](C)[C@@H](O[C@@H]3O[C@H](C)C[C@H](N(C)C(=O)N(C)C(C)C)[C@H]3Oc3ccccc3)[C@](C)(O)C[C@@H](C)CN[C@H](C)[C@@H](O)[C@](C)(O)[C@@H](CC)OC(=O)[C@@H]2C)C[C@@]1(C)OC` [Example F-27], the IC50 was 4 µM in test [2] and 11 µM in test [3]. The “IL-1ß OS of LPS” value in test [4] came out at 1 µM.
